Measurements published in a melting point compilation (Tetko et al.; mined from patent text by program, amines drawn as free bases though some values may be those of a salt).

| Structure (SMILES) | melting point |
| --- | --- |
| CC(=O)NC1(c2ccc(CN3CCN(c4nccs4)CC3)cc2)CC1 | 184 to 185 °C |
| CCOC1CC(n2cc(CC)c(=O)[nH]c2=O)OC1CNC(=O)C(C)Oc1ccc(Cl)cc1Cl (mixture of isomers) | 121 to 124 °C |
| CC(C)(C)OC(=O)N1CCN(c2ncccc2C=O)CC1 | 88 to 89 °C |
| Cc1c(C)c2c(c(C)c1O)SC(CCC(N)=O)O2 (stereo unspecified) | 160 to 161 °C |
| COc1ccc2c(c1)CCC1C3CC4OCCOC4C3(C)CC(=O)C21C (stereo unspecified) | 142 to 145 °C |
| FC(F)(F)c1cccc(Nc2ccccc2-c2n[nH]c(=S)s2)c1 | 140 to 142 °C |
| CCOC(=O)N1CCC(O)(c2cc(F)c(Br)cc2F)CC1 | 133 to 136 °C |
| Clc1ccc2[nH]c3c(c2c1)CCC1(C3)OCCO1 | 128 to 138 °C |
| CC(C)c1ccc2oc3cc(C#N)c(O)nc3c(=O)c2c1 | > 300 °C |
| Cn1ncc(C(=O)c2ccc(Cl)cc2Cl)c1Cl | 81 to 83 °C |
| OC(CCl)CN1CCN(C(c2ccccc2)c2ccccc2)CC1 (stereo unspecified) | 114 to 116 °C |
| CS(=O)(=O)c1ccc(-c2cc(Br)c3cnc(Nc4ccc(N5CCOCC5)cc4)nn23)cc1 | 242 to 244 °C |
| O=C(c1ccccc1Cl)P1(=O)Oc2ccccc2-c2ccccc21 (stereo unspecified) | 108 to 110 °C |
| COc1ccc2nc(Sc3ccc4c(c3)CC[C@H]3N(C)C(=O)CC[C@]43C)sc2c1 | 102 to 107 °C |
| CC(C)(C)OC(=O)N1CCC[C@H]1C(=O)N1CCN(C(=O)c2ccc(C#N)cc2)CC1 | 50 °C |
| COCOc1cccc(NC(=O)OC(C)(C)C)c1I | 82 to 84 °C |
| CC(=O)n1cc(C#N)c(-c2cccc(Cl)c2Cl)c1 | 136 to 137 °C |
| CC1CCC(CCC(=O)O)(CCC(=O)O)C(=O)C1(CCC(=O)O)CCC(=O)O (stereo unspecified) | 210 to 213 °C |
| Cc1cc(N(C)N)nnc1-c1ccc(C#N)cc1 | 149 to 152 °C |
| COc1nc(N)nc2c1ncn2COC(CO)CO | 162 to 163 °C |
| OCC1(c2ccc(Cl)cc2)CCC1 | 53 to 54 °C |
| C=CCOC(=O)C(C(=O)OCC=C)=C1SC(O)C(O)S1 (stereo unspecified) | 81.2 °C |
| C[C@@H]1N(c2ccc(C#N)c(C(F)(F)F)c2)C(=O)C[C@]1(C)O | 134 to 137 °C |
| Cc1nc(C#N)c2n1-c1ccc(Cl)cc1C(c1ccccc1)=NC2 | 228 to 229 °C |
| CON(C)C(=O)c1cc(-n2c(Cl)nc(C(F)(F)F)cc2=O)c(F)cc1Cl | 183 °C |
| COc1ccc(-c2csc(C(=O)O)n2)cc1OC1CC2CCC1C2 (stereo unspecified) | 112 to 113 °C |
| CC(C=CC=C(C)c1cc2c(s1)C(C)(C)CCC2(C)C)=CC(=O)O | 226 to 228 °C |
| CCCCCCCCS(=O)(=O)NCCC(=O)O | 122 °C |

| Structure (SMILES) | melting point |
| --- | --- |
| CN(Cc1ccc(Cl)c(Cl)c1)C(=O)C1=C(O)C(=O)N(CCC(=O)O)C1 | 183 to 184 °C |
| CCOCc1nc2c(N)nc3cc(O)ccc3c2n1CC(C)C | > 265 °C |
| Nc1ccc(-c2cccs2)c(C(=O)Nc2ccc3c(c2)CCC3)c1 | 62 to 67 °C |
| CCc1cc(N)c(I)c(CC)n1 | 72 to 74 °C |
| O=C(NC(=S)NC1CCN(CCc2c[nH]c3ccccc23)CC1)c1ccccc1 | 212 to 215 °C |
| CC(=O)Nc1nc(C)c(S(=O)(=O)n2c(CCCC(=O)O)cc3cc(Cl)ccc32)s1 | 231 to 233 °C |
| Cc1sc2c(c1C(=O)c1ccccc1)CCC2C(N)=O (stereo unspecified) | 165 to 168 °C |
| OCCCNc1cc(-n2cccn2)nc(-c2cccs2)n1 | 130 to 131 °C |
| Cc1cccc(C2=CCN(c3ccc(F)nn3)CC2)c1 | 105 °C |
| CCOC(=O)Cn1cc(Cc2nc3c(F)c(F)cc(F)c3s2)c2ccc(CC)nc21 | 114 to 115 °C |
| CCC1(SC)CCC2C3CCC4=CC(=O)C=CC4(C)C3(F)C(O)CC21C (stereo unspecified) | 252 to 254 °C |
| CCNC(=O)n1nc(Oc2c(F)cc(C(F)(F)F)cc2F)cc1C | 102 to 104 °C |
| COc1c(N2CCNCC2)c(F)cc2c(=O)c(C(=O)O)cn(C3CC3)c12 | 177 to 178 °C |
| [N-]=[N+]=CC(=O)[C@H](O)[C@@H](O)[C@@H](O)CO | 93 to 94 °C |
| c1ccc(Oc2ccc(N3CCNCC3)nn2)cc1 | 96 to 97 °C |
| O=C1c2cccc3c4c(cc(c23)C(=O)N1O)COCO4 | 314 to 315 °C |
| O=C1OC(CCCCN2CCN(c3ccccc3)CC2)CN1c1ccccc1 (stereo unspecified) | 83 to 85 °C |
| CC(=O)Oc1ccc([C@@H]2SC(C)(C)[C@H](C(=O)O)N2C(C)=O)cc1 | 199 to 201 °C |
| CN1N=C(c2ccc(F)cc2)c2ccc(Cl)cc2CS1(=O)=O | 250 to 251 °C |
| COc1nc(NC(=O)NS(=O)(=O)c2cc(Cl)ccc2C(=O)OC(C)C)nc(C(F)(F)F)n1 | 160 to 163 °C |
| CC(C)n1nc(-c2c(-c3ccccc3)nn3ccc(N4CCN(c5ccccc5)CC4)cc23)ccc1=O | > 240 °C |
| O=CC=CC=CC=CC=Cc1ccsc1 | 156 to 158 °C |
| CN1CS(=O)c2cccc(Cl)c21 (stereo unspecified) | 130 to 132 °C |
| CCNC(=O)c1cc(Cl)ccc1[Si](C)(C)C | 104 to 105 °C |
| CCCCCCCCCCCCCCCCOC(=O)c1ccc(-c2nnn[nH]2)nc1 | 139 to 140 °C |
| Cc1ccc(S(=O)(=O)Oc2ccc(F)cc2Cl)cc1 | 92 to 94 °C |
| CCOC(=O)C(O)(CC(=O)c1ccc(C)c(F)c1)C(=O)OCC | 68.7 to 69 °C |

More lines, now with the values ahead:

| melting point | Structure (SMILES) |
| --- | --- |
| 241 to 243 °C | CC1(C)Oc2ccc(C#N)cc2C2C1OC(=O)CN2c1ccccc1 (stereo unspecified) |
| 222 to 223 °C | CC1(C)CN2C(=O)c3nc[nH]c3N(Cc3ccc(Cl)cc3)C2=N1 |
| 76 to 77 °C | CC(C)(C)[Si](C)(C)Oc1ccc(CON2C(=O)c3ccccc3C2=O)cc1 |
| 92.5 °C | FC(F)c1cccc(C=C2c3ccccc3CCc3ccccc32)c1 |
| 124 °C | CCOc1cc(OC)cc(O)c1C(=O)C=Cc1ccc(OC)cc1 |
| 154 to 156 °C | CN(CCOc1ccc(CC(S)C(=O)O)cc1)c1nc2ccccc2o1 (stereo unspecified) |
| 155 to 157 °C | O=C(Nc1ccccc1)c1ccc(F)c([N+](=O)[O-])c1 |
| 103 to 105 °C | CCOC(=O)N=P(c1ccccc1)(c1ccccc1)c1ccccc1CN(C)C |
| 231 to 232 °C | O=C(N[C@H](Cc1ccc(C(F)(F)F)cc1)[C@@H](O)c1ccc(F)cc1)c1cccc2c1-c1ccccc1C2=O (racemic) |
| 210 to 211 °C | Cc1ccc(C(=O)NC(NC(=S)Nc2ccccc2C)C(F)(F)F)cc1 (stereo unspecified) |
| 85 to 87 °C | CCOC(=O)C1=C(C)N=C(SCc2ccc(OC)cc2)N(C(=O)OCC)C1c1cccc(C#N)c1 (stereo unspecified) |
| 170 °C | O=S(=O)(Nc1cccc(C(=NO)c2cccnc2)c1)c1ccc(Cl)cc1 |
| 58 to 60 °C | Cc1ccc(NCC2CCN(C(C)C)CC2)c(C(=O)Nc2ccc(F)cn2)c1 |
| 193 to 196 °C | C=Cc1ccc2c(c1)c(=O)c(C(=O)NCc1ccc(Cl)cc1)cn2C |
| 142 to 144 °C | CC(C)c1cccc(C(C)C)c1N=c1cccc(-c2ccccc2)[nH]1 |
| 72 to 75 °C | COC(=O)c1nccnc1Nc1ccccc1 |
| 154 to 156 °C | CCCc1c(OCCCS(=O)(=O)c2ccc(CC(=O)O)cn2)ccc(C(C)=O)c1O |
| 112 °C | CN(C(=O)C1CCn2cccc21)c1ccccc1 (stereo unspecified) |
| 155 to 157 °C | CCNc1nc(Nc2ccccc2)ncc1C=O |
| 154 to 155 °C | COC(=O)c1cc2ccnc(NCc3ccccc3)c2[nH]1 |
| 120 to 121 °C | Oc1ccccc1-c1cc(-c2ccc3c(c2)OCO3)cc(-c2ccsc2)n1 |
| 115 to 117 °C | COc1ccc(N2CCc3c(C)nc4ccccc4c32)c(C)c1 |
| 265 to 267 °C | CN1CC(C(=O)c2c[nH]cc2Cc2ccc(F)cc2)=C(O)C1=O |

| melting point | Structure (SMILES) |
| --- | --- |
| 142 to 143 °C | COc1ccc(C2CNC(=O)NC2)cc1OCCCCc1ccccc1 |
| 119 °C | CCCCc1cn2ccccc2c1S(=O)(=O)c1ccc(OCCCBr)cc1 |
| 190 to 192 °C | FC(F)(F)Oc1ccc2nc(-c3ccc(Cl)cc3)[nH]c2c1 |
| 200 to 202 °C | Nc1nc(Nc2ccc3c(c2)OCO3)sc1C(=O)c1ccccc1[N+](=O)[O-] |
| 152 to 153 °C | CCCCc1oc2ccc(C(=O)OC)cc2c1C(=O)c1ccc(O)cc1 |
| 130 to 131 °C | CCOCn1c(Oc2ccccc2)c(CC)c(=O)[nH]c1=O |
| 232 to 234 °C | CC(O)Cc1c(O)c2cccnc2n(-c2ccc(Cl)c(Cl)c2)c1=O (stereo unspecified) |
| > 230 °C | Cc1c(C)c2c(c(C)c1O)CCC(C)(CNCCc1ccc(N=C(N)c3cccs3)cc1)O2 (stereo unspecified) |
| 142 to 146 °C | CCCCCCCCOc1ccc(-c2nnn[nH]2)c(O)c1 |
| 79 to 82 °C | C=C(CC)CNc1cccc(-c2ccnc3c(C(=O)c4cccs4)cnn23)c1 |
| 113 to 115 °C | Cn1c2c(ccc1=O)C(NCCc1ccc3ccccc3c1)CCC2 (stereo unspecified) |
| 89 to 90 °C | COc1cc(-c2ccccn2)cc([N+](=O)[O-])c1OC |
| 165 to 167 °C | Cc1ccccc1C(=O)Nc1ccc(-n2nc(C(F)(F)F)cc2C(F)(F)F)cc1 |
| 188 to 189 °C | COc1ccc(OC)c(Cc2nc3ccc(C)cc3c(=O)[nH]2)c1 |
| 62 to 64 °C | CNC(=O)[C@@H]1C[C@@H](OCc2ccccc2)CN1S(=O)(=O)c1ccc(Cl)c(CBr)c1Cl |
| 94 to 97 °C | CCOC(=O)C=Cc1ccc(Oc2c(-c3ccc(OC)cc3)ccc3cc(OC)ccc23)cc1 |
| 158 to 159 °C | CCOC(=O)COc1ccc(CN2C(=O)C3(COc4cc5c(cc43)CCO5)c3ccccc32)cc1 (stereo unspecified) |
| 143 to 144 °C | Nc1cc(N2CC(CCc3ccccc3)OC2=O)ccn1 (stereo unspecified) |
| 182 to 185 °C | CN1Cc2ccccc2C(c2ccccc2)N=C1Cc1ccc(NS(C)(=O)=O)cc1 (stereo unspecified) |
| 176 to 177 °C | Cc1c(-c2ccc(O)cc2)nnn1-c1ccc(C(F)(F)F)cc1Cl |
| 208 °C | COc1ccc(C(=O)Nc2ccc3ccc(Oc4ccccc4F)nc3n2)cc1 |
| 197 to 200 °C | CCCn1nc2c(N)nc3ccccc3c2c1CC(C)(C)OCCS(C)(=O)=O |
| 163 to 165 °C | CCCCc1oc2ccccc2c1C(=O)c1ccc2c(Br)c(OCC(=O)O)ccc2c1 |
